Test results from patent US10703748B2, “Diazanaphthalen-3-yl carboxamides and preparation and use thereof” (Samumed, LLC, priority 2017, dated 2020).

Legend:
DYRK1A kinase = DYRK1A kinase (Homo sapiens, UniProt Q13627); test: DYRK1A kinase activity (Ser/Thr 18 peptide Z-lyte FRET assay); assay type: biochemical; conditions: recombinant DYRK1A, 30 μM ATP, one hour at room temperature;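 further: kinase activity read as coumarin/fluorescein emission ratio after development step, with unphosphorylated and phosphorylated peptide forms setting 0% and 100% controls, values from dose-response curves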
GSK3β kinase = GSK3β kinase (Homo sapiens, UniProt P49841); test: GSK3β kinase activity (Ser/Thr 09 peptide Z-lyte FRET assay); assay type: biochemical; conditions: recombinant kinase, 46 μM ATP, one hour at room temperature; read-out: EC50
[1] = system: Tau phosphorylation at Ser396 (pSer396); test: Tau phosphorylation at Ser396 (pSer396) in SH-SY5Y cells, ELISA / western blot; assay type: cell-based, human; conditions: Homo sapiens; SH-SY5Y cells, overnight (16-18 h); read-out: pSer396 Tau EC50;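 further: decrease in pSer396 Tau measured in lysates of treated cells by colorimetric ELISA or chemiluminescent western blot, same pSer396 antibody for both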
Procedure: Two days before treatment, cells were seeded onto 96 well plates at 5×10^4 cells/well.
The above synthesized compounds were screened using the cell assay procedure to assess decrease Tau phosphorylation at Ser396 (pSer396) described below.
Cells were lysed with RIPA buffer complemented with phosphatase and protease inhibitors then lysates were spun down at 12,000 g for 10 min to remove any cellular debris.

[2] = system: Tau phosphorylation at Threonine 212 (pT212Tau); test: Tau phosphorylation at Threonine 212 (pT212Tau) in Dyrk1a- and MAPT-overexpressing HEK293T cells, sandwich ELISA; assay type: cell-based; conditions: Homo sapiens, HEK-293T, overnight (16-18 hours), read-out: Thr212 EC50
Procedure: HEK293T cells (transfectable human embryonic kidney cells) were cultured in DMEM medium supplemented with 10% FBS and 1% penicillin/streptomycin.
HEK293T cells were transiently transfected to overexpress Dyrk1a and microtubule-associated protein Tau (MAPT) genes. Specifically, Dyrk1a and MAPT expression vectors were obtained from OriGene (10 μg of each, catalog numbers SC314641 and RC216166, respectively). A MaxiPrep for each vector was ordered and received from GeneWiz, yielding 874.5 μg (resuspended at […]) of the Dyrk1a expression vector, and 898 μg (resuspended at […]) of MAPT.
HEK293T cells were seeded at 1.0×10^7 cells in 10 mL per T-75 flask. […] One T-75 flask was designated as a no-vector negative control for pT212Tau signal.
After 4-6 hours of incubation in transfection reagents, transiently double transfected HEK293T cells were dissociated by treatment with trypsin EDTA and seeded at 1.0×10^5 cells in 100 μL per well in 96-well plates. No-vector negative controls were seeded in separate 96-well plates to avoid the risk of the negative control cells picking up the overexpression during incubation. At the time of seeding, DMSO-resuspended Samumed compounds were dispensed to eight wells as a serial dilution from 10 μM to 4.6 nM final concentration in medium, or at 0.12 μM to 0.05 nM with particularly potent compounds. Cells were exposed to the representative compounds overnight (16-18 hours) in a 37° C. incubator.
96-Well flat-bottom plates were coated with 100 μL per well anti-HT7 capture antibody (ThermoFisher, MN1000) diluted 1:300 in 1×PBS at 4° C. overnight, with shaking at 500 rpm. After overnight capture antibody incubation, coated plates were washed four times with 200 μL per well of 1×PBS-0.05% Tween-20, and blocked for 1 hour with 200 μL per well of 1×PBS with 2% BSA. After 1 hour of blocking, plates were washed four times with 200 μL per well of 1×PBS-0.05% Tween-20, prior to sample loading.
Wells of compound-treated cells were visually checked for cell death before being washed with 200 μL per well of 1×DPBS supplemented with phosphatase inhibitor diluted to 1×. Cells were then lysed with 100 μL 1×RIPA buffer supplemented with phosphatase and protease inhibitors (each diluted to a final 1×). Cells were shaken at 500 rpm, 4° C. for 20 minutes prior to further lysis (via manual scraping) and transfer to 96-well V-bottom collection plates (Corning, 3894). V-bottom plates were centrifuged at 4000 rpm, 4° C., for 15 minutes, and 100 μL of lysate supernatant from each well was directly tested for pT212Tau signal by sandwich ELISA.
Specifically, lysates were directly transferred to the coated and blocked ELISA plates for 2 hours before plates were washed four times with 200 μL per well of 1×PBS-0.05% Tween-20 and probed with 100 μL per well of anti-pT212Tau antibody (ThermoFisher, 44-740G) diluted 1:200 in 1×PBS for 2 hours. Plates were washed four times with 200 μL per well of 1×PBS-0.05% Tween-20 and probed with 100 μL per well of anti-rabbit/HRP conjugate (Cell Signaling Technology, 7074S) diluted 1:600 in 1×PBS for 1 hour. Plates were washed four times with 200 μL per well of 1×PBS-0.05% Tween-20 before 100 μL per well of TMB substrate solution (ThermoFisher, N301) was added. When colour development was observed, 100 μL per well of stop solution (ThermoFisher, N600) was added, and colorimetric detection of pT212Tau signal was read at 450 nm with the Cytation 3 Cell Imaging Multi-Mode Reader (BioTek). The signal was used to plot, draw the curves fitting, and determine the EC50 values in GraphPad Prism for tested representative compounds.

[3] = system: secreted cytokines TNFα, IL-6 and KC-GRO; test: Secreted cytokines in Lipopolysaccharide-stimulated BV-2 cells (Table 9 does not say which cytokine); assay type: cell-based, mouse; conditions: Mus musculus, BV-2, 5 h; read-out: EC50
[4] = system: SW480 colon carcinoma cells; test: Cell viability assay (CellTiter-Glo); conditions: Homo sapiens; for EC50: SW480, 96 h; for inhibition at 10 µM: SW480, read-out: percent inhibition at 10 μM
[5] = system: Wnt-responsive Sp5-Luc reporter in SW480 colon carcinoma cells; test: Screening assay for Wnt activity (Sp5-Luc reporter gene assay); conditions: Homo sapiens, SW480
IL-6 = IL-6 inhibition in LPS-stimulated human peripheral blood mononuclear cells (HTRF); conditions: Homo sapiens, PBMC; for EC50: 22 h; for inhibition at 10 µM: read-out: percentage in parentheses after EC50 >10
[6] = system: α-smooth muscle actin (aSMA) positive LL29 cells; test: Inhibition of the fibrotic process: αSMA staining in TGF-β1 treated LL29 fibroblasts from IPF patients; conditions: Homo sapiens, Fibroblast; for EC50: 96 h

GSK3β kinase, sequence (P49841 whole entry): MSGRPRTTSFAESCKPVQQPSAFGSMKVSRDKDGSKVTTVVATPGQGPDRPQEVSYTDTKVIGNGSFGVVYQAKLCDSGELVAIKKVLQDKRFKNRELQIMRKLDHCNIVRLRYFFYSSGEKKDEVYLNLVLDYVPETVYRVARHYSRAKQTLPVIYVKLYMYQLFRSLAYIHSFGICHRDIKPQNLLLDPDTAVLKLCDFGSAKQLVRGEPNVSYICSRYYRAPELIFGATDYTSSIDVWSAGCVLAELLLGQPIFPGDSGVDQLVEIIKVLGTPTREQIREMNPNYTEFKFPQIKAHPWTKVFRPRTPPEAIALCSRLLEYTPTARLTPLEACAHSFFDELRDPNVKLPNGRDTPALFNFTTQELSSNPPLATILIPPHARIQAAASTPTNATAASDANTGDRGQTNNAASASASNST

| EC50 (DYRK1A kinase) [nM] | EC50 (GSK3β kinase) [nM] | EC50 [1] [nM] | EC50 [2] [nM] | EC50 [3] [nM] | EC50 [4] [nM] | EC50 [5] [nM] | EC50 (IL-6) [nM] | Structure (SMILES) | inhibition at 10 µM (IL-6) [%] | EC50 [6] [nM] | inhibition at 10 µM [4] [%] | inhibition at 10 µM ([6]; read-out: percentage in parentheses after EC50 >10) [%] |
| --- | --- | --- | --- | --- | --- | --- | --- | --- | --- | --- | --- | --- |
| 4 | 18 | 398 | 15 | > 10000 | 6660 | 426 | > 10000 | Cn1cc(-c2cc3cc(NC(=O)C4CCN(Cc5ncccn5)CC4)ncc3cn2)cn1 [Compound 3727, N-(6-(1-Methyl-1H-pyrazol-4-yl)-2,7-naphthyridin-3-yl)-1-(pyrimidin-2-ylmethyl)piperidine-4-carboxamide] | 6.2 | 149 | – | – |
| 16 | 852 | > 10000 | 268 | 305 | 5640 | 2820 | > 10000 | Cn1cc(-c2cc3cc(NC(=O)c4ccnc(N5CCNCC5)c4)ncc3cn2)cn1 [Compound 3773, N-(6-(1-Methyl-1H-pyrazol-4-yl)-2,7-naphthyridin-3-yl)-2-(piperazin-1-yl) isonicotinamide] | 1.1 | 3320 | – | – |
| 4 | 30 | 284 | 157 | > 10000 | > 10000 | 863 | > 10000 | O=C(Nc1cc2cc(-c3cncs3)ncc2cn1)C1CCN(C2COC2)CC1 [Compound 4244, 1-(Oxetan-3-yl)-N-(6-(thiazol-5-yl)-2,7-naphthyridin-3-yl)piperidine-4-carboxamide] | 6.9 | > 10000 | 19.9 | 4.9 |
| 7 | 182 | 2100 | 306 | 129 | > 10000 | 953 | 4560 | Cc1ncc(-c2ccc3cnc(NC(=O)C4CCN(C(=O)CN5CCCC5)CC4)cc3n2)s1 [Compound 4561, N-(2-(2-Methylthiazol-5-yl)-1,6-naphthyridin-7-yl)-1-(2-(pyrrolidin-1-yl)acetyl)piperidine-4-carboxamide] | – | 664 | 49.5 | – |
